Assay results published in patent US10222368B2 (priority 2012, dated 2019).

Target: T1, mu opiate receptor (MOR) (Rattus norvegicus, UniProt P33535)
T1 construct: from tissue; host or cells: striatal tissue (membrane preparation)
Test: MOR agonist activity using [35S]GTPγS binding assay in striatal membranes
Assay type: biochemical
Settings: for MOR agonist activity, [35S]GTPγS binding, FLNA-binding compound as agonist at 0.1 μM / MOR agonist activity, [35S]GTPγS binding, 1 μM + BFNA / MOR agonist activity, [35S]GTPγS binding, FLNA-binding compound as agonist at 1 μM: striatal membranes; for MOR agonist activity, [35S]GTPγS binding, FLNA-binding compound as agonist at 0.1 μM / MOR agonist activity, [35S]GTPγS binding, FLNA-binding compound as agonist at 1 μM: Series C-2; for MOR agonist activity, [35S]GTPγS binding, 1 μM + BFNA: 1 μM compound + 1 μM β-FNA (MOR antagonist); for MOR agonist activity, [35S]GTPγS binding, FLNA-binding compound as agonist at 1 μM / % DAMGO (1 μM): 1 μM compound
Procedure: To assess the mu opiate receptor (MOR) agonist activity of positive compounds from the FLNA screening, compounds were tested in a [^35S]GTPγS binding assay using striatal membranes. […] This assay measures a functional consequence of receptor occupancy at one of the earliest receptor-mediated events. The assay permits for traditional pharmacological parameters of potency, efficacy and antagonist affinity, with the advantage that agonist measures are not subjected to amplification or other modulation that may occur when analyzing parameters further downstream of the receptor.
Thus, striatal tissue was homogenized in 10 volumes of ice cold 25 mM HEPES buffer, pH 7.4, which contained 1 mM EGTA, 100 mM sucrose, 50 μg/ml leupeptin, 0.04 mM PMSF, 2 μg/ml soybean trypsin inhibitor and 0.2% 2-mercaptoethanol. The homogenates were centrifuged at 800×g for 5 minutes and the supernatants were centrifuged at 49,000×g for 20 minutes.
The resultant striatal membrane preparation (200 μg) was admixed and maintained (incubated) at 30° C. for 5 minutes in reaction buffer as above that additionally contained 1 mM MgCl2 and 0.5 nM [^35S]GTPγS (0.1 μCi/assay, PerkinElmer Life and Analytical Sciences) in a total volume of 250 μl and continued for 5 minutes in the absence or presence of 0.1-10 μM of an assayed compound of interest. The reaction was terminated by dilution with 750 μl of ice-cold reaction buffer that contained 20 mM MgCl2 and 1 mM EGTA and immediate centrifugation at 16,000×g for 5 minutes.
Normal rabbit serum (1 μl) was added to 1 ml of lysate and incubated at 25° C. for 30 minutes. Nonspecific immune complexes were removed by incubation with 25 μl of protein A/G-conjugated agarose beads at 25° C. for 30 minutes followed by centrifugation at 5,000×g at 4° C. for 5 minutes. The supernatant was divided and separately incubated at 25° C. for 30 minutes with antibodies raised against Gαo proteins (1:1,000 dilutions).
The immunocomplexes so formed were collected by incubation at 25° C. for 30 minutes with 40 μl of agarose-conjugated protein A/G beads and centrifugation at 5,000×g at 4° C. for 5 minutes. The pellet was washed and suspended in buffer containing 50 mM Tris-HCl, pH 8.0, and 1% NP-40. The radioactivity in the suspension was determined by liquid scintillation spectrometry.

[1] = Series C-1, 1 μM compound + BFNA relative to DAMGO + BFNA
[2] = Series C-1, 0.1 μM compound relative to DAMGO (0.1 μM)
[3] = 0.1 μM compound, relative to DAMGO

T1 sequence (P33535 whole entry): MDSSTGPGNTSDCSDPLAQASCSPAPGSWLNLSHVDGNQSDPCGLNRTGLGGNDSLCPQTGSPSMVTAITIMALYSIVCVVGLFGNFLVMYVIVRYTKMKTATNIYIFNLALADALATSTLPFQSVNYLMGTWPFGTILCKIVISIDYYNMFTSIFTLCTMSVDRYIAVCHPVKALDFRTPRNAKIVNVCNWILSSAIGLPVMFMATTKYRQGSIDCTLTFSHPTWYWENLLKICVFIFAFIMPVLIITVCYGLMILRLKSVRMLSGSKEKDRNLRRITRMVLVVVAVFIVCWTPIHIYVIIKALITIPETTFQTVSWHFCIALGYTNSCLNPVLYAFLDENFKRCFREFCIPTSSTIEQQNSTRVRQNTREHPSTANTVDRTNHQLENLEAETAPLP

| SMILES | MOR agonist activity, [35S]GTPγS binding, FLNA-binding compound as agonist at 0.1 μM (0.1 μM compound) [%] | MOR agonist activity, [35S]GTPγS binding, 1 μM + BFNA [%] | MOR agonist activity, [35S]GTPγS binding, FLNA-binding compound as agonist at 1 μM [%] | % DAMGO + BFNA [1] [%] | % DAMGO (0.1 μM) [2] [%] | % DAMGO (1 μM) (relative to DAMGO) [%] | % DAMGO (0.1 μM) [3] [%] | % DAMGO + BFNA (1 μM compound + BFNA, relative to DAMGO + BFNA) [%] |
| --- | --- | --- | --- | --- | --- | --- | --- | --- |
| CN1CCC2(CC1)OCCN2S(=O)(=O)c1ccc(S(C)(=O)=O)cc1 [Compound C0106M] | 171.8 | 117.2 | 240.7 |  |  |  |  |  |
| CS(=O)(=O)c1ccc(S(=O)(=O)N2CCOC23CCN(CC2CC2)CC3)cc1 [Compound C0126M] | 181.8 | 108.5 | 265.3 |  |  |  |  |  |
| N#Cc1ccc(S(=O)(=O)N2CCC3(CC2)OCCN3S(=O)(=O)c2ccc(C#N)cc2)cc1 [Compound C0008] |  |  |  | 4.4 |  |  |  |  |
| O=S(=O)(c1cccc2cccnc12)N1CCC2(CC1)OCCN2S(=O)(=O)c1cccc2cccnc12 [Compound C0143M] | 81.0 | 86.5 | 193.3 |  |  |  |  |  |
| O=C1CN(Cc2ccccc2)C2(CCNCC2)N1 [Compound C0115M] | 177.2 | 118.4 | 226.8 |  |  |  |  |  |
| COc1ccc(S(=O)(=O)N2CCOC23CCN(C(=O)OC(C)(C)C)CC3)cc1 [Compound C0043] | 175.4 | 83.3 | 242.6 |  |  |  |  |  |
| O=C1CN(Cc2ccccc2)C2(CCN(C3CCCCC3)CC2)N1 [C0137M(P7)] | 180.8 | 55.8 | 193.8 |  |  |  |  |  |
| COc1ccc(S(=O)(=O)N2CCOC23CCNCC3)cc1 [Compound C0027] | 233.2 | 72.2 | 313.9 |  |  |  |  |  |
| Cc1cccc(S(=O)(=O)N2CCC3(CC2)OCCN3S(=O)(=O)c2cccc(C)c2)c1 [Compound C0014] |  |  |  |  | 82.0 |  |  |  |
| C=CCN1CCC2(CC1)OCCN2S(=O)(=O)c1ccc(C(C)=O)cc1 [Compound C0096M] | 186.4 | 127.1 | 328.9 |  |  | 130.0 |  |  |
| CC(=O)c1ccc(S(=O)(=O)N2CCC3(CC2)OCCN3S(C)(=O)=O)cc1 [Compound C0056] | 98.6 | 86.3 | 193.4 |  |  | 83.0 | 68.0 |  |
| CCN1CCC2(CC1)OCCN2S(=O)(=O)c1ccc(OC)cc1 [Compound C0089M] | 234.5 | 81.9 | 295.3 |  |  |  |  |  |
| COc1ccc(S(=O)(=O)N2CCC3(CC2)NCCO3)cc1 [Compound C0026] | 207.2 | 21.2 | 288.4 |  |  |  |  |  |
| CC(=O)c1ccc(S(=O)(=O)N2CC(CN(C)C)OC23CCN(CC2CC2)CC3)cc1 (centres unmarked) [Compound C0128M] | 197.8 | 63.9 | 286.0 |  |  |  |  |  |
| CCCCN1CCC2(CC1)OCCN2S(=O)(=O)c1ccc(OC)cc1 [Compound C0102M] | 131.8 | 150.4 | 272.0 |  |  |  |  |  |
| CC(=O)c1ccc(S(=O)(=O)N2CC(CN(C)C)OC23CCN(C)CC3)cc1 (centres unmarked) [Compound C0108M] | 205.6 | 76.9 | 258.5 |  |  |  |  |  |
| COc1ccc(S(=O)(=O)N2CCOC23CCN(CC2CC2)CC3)cc1 [Compound C0090M] | 237.0 | 41.0 | 341.0 |  |  |  |  |  |
| CC(=O)Nc1ccc(S(=O)(=O)N2CCC3(CC2)OCCN3S(=O)(=O)c2ccc(NC(C)=O)cc2)cc1 [Compound C0013] |  |  |  |  | 91.0 |  |  |  |
| O=[N+]([O-])c1ccc(S(=O)(=O)N2CCC3(CC2)NCCS3)cc1 [Compound C0044] | 173.7 | 59.1 | 280.1 |  |  |  |  |  |
| CC(=O)c1ccc(S(=O)(=O)N2CCC3(CC2)OCCN3S(=O)(=O)c2ccc(C(C)=O)cc2)cc1 [Compound C0011] | 217.0 | 19.0 | 305.0 |  |  |  |  |  |
| CCc1ccc(S(=O)(=O)N2CCOC23CCN(CC2CC2)CC3)cc1 [Compound C0135M] | 161.3 | 113.3 | 310.1 |  |  |  |  |  |
| COc1ccc(S(=O)(=O)N2CCOC23CCN(C(C)C)CC3)cc1 [Compound C0133M] | 139.4 | 72.4 | 214.8 |  |  |  |  |  |
| CN1CCC2(CC1)NC(=O)CN2Cc1ccccc1 [Compound C0104M] | 188.2 | 143.8 | 238.9 |  |  |  |  |  |
| CC(=O)c1ccc(C(=O)N2CCC3(CC2)OCCN3S(=O)(=O)c2ccc(C(C)=O)cc2)cc1 [Compound C0052] |  |  |  | 97.0 |  |  |  |  |
| CCOC(=O)CN1CCC2(CC1)OCCN2S(=O)(=O)c1ccc(C(C)=O)cc1 [Compound C0099M] | 157.2 | 114.7 | 195.7 |  |  | 88.0 |  |  |
| CS(=O)(=O)c1ccc(S(=O)(=O)N2CCOC23CCNCC3)cc1 [Compound C0116M] | 258.4 | 152.0 | 302.8 |  |  |  |  |  |
| CC(=O)c1ccc(S(=O)(=O)N2CCC3(CC2)NC(=O)CO3)cc1 [Compound C0087M] | 262.8 | 142.5 | 329.6 |  |  | 132.8 | 138.9 | 293.8 |
| O=C1CN(Cc2ccccc2)C2(CCN(CC3CC3)CC2)N1 [Compound C0125M] | 168.6 | 159.7 | 195.2 |  |  |  |  |  |
